Where a SMILES comes first, the peptide text is derived from it. Bridges are numbered along the chain shown (N, C = ends). Roman numbers before positions name the chains, in order. [ ]: non-standard residue; d: D form. The star is where a group is joined. Stearoyl = CCCCCCCCCCCCCCCCCC(=O)*; Orn = NCCC[C@H](N)C(=O)O
Test system: CHO cells
Assay: pDNA (p-CMV-Luc2) transfection with CPP/pDNA complexes
Assay type: cell-based
Conditions: serum containing medium, CR1 to CR4, 24 h
Protocol: For the pDNA transfection experiment, CPP/pDNA nanoparticles were prepared by mixing […] of plasmid (p-CMV-Luc2) with the peptide in MQ water. Charge ratios from 1 to 4 (CR, equivalent to the nitrogen-to-phosphate ratio) were used. 50,000 CHO cells were seeded 24 hr before the experiment into 24-well plates, treated with complexes for 4 h in serum-containing medium, incubated for additional 20 hr, lysed and luminescence was measured.

In the case of `CCCCCCCCCCCCCCCCCC(=O)N[C@@H](Cc1c[nH]cn1)C(=O)N[C@@H](Cc1c[nH]cn1)C(=O)N[C@@H](Cc1ccc(O)cc1)C(=O)N[C@@H](Cc1c[nH]cn1)C(=O)N[C@@H](Cc1c[nH]cn1)C(=O)NCC(=O)NCCC[C@H](N)C(=O)N[C@H](C(=O)N[C@@H](CC(C)C)C(=O)N[C@@H](CC(C)C)C(=O)N[C@@H](CCCCN)C(=O)N[C@@H](C)C(=O)N[C@@H](CC(C)C)C(=O)N[C@@H](CCCCN)C(=O)N[C@@H](C)C(=O)N[C@@H](CC(C)C)C(=O)N[C@@H](C)C(=O)N[C@@H](CCCCN)C(=O)N[C@@H](C)C(=O)N[C@H](C(=O)N[C@@H](CC(C)C)C(N)=O)[C@@H](C)CC)[C@@H](C)CC` [NF71] (I: H-[Orn]ILLKALKALAKAIL-NH2 / II: Stearoyl-HHYHHG; amide I:1-II:C), the “pDNA delivery / gene expression in vitro (in words)” value is reported as “promising vectors for pDNA transfection”.
